These results are taken from patent US9932300B2, “N,N′-diarylurea compounds and N,N′-diarylthiourea compounds as inhibitors of translation initiation” (President and Fellows of Harvard College, priority 2009, dated 2018).

Each structure is given as a SMILES string. Values joined by “and” are separate entries in the source; they are usually repeats but may differ in a detail not shown here. Identical values can stand only once.

This test deals with eIF2-GTP-Met-tRNAi ternary complex. The test is described as follows: Ternary complex assay (dual luciferase, firefly/renilla ratio) in stable KLN-tTA/pBISA-DL(ATF-4) cells; HTS and hit confirmation. In kind it is cell-based, mouse. Further details: Activity 10 uM / Activity 2.5 uM / Activity 5 uM: unit not given here. The conditions noted are these: confirmed hits of the screen (Table 5); for Activity 2.5 uM: compound at 2.5 uM; for Activity 10 uM: compound at 10 uM; for Activity 5 uM: compound at 5 uM.

In the case of `C1=C(c2ccccc2)OC(c2ccccc2)=C(c2ccccc2)[P+]1(c1ccccc1)c1ccccc1.[Br-]` [Compound 339567], the “Activity 2.5 uM” value is 1.94 and the “Activity 10 uM” value was 11.94. The like results for `Cc1ccc(Sc2ccc3ccccc3n2)cc1` [Compound 340215] were, in that order, 2.4 and 3.11. The like results for `CN1/C(=C/C=C/C=C/C2=[N+](C)c3ccccc3C2(C)C)C(C)(C)c2ccccc21.[I-]` [Compound 340302] were, in that order, 3.29 and 4.54. For the compound `COc1ccc(N=C(C)C2C(=O)c3ccccc3C2=O)cc1` [Compound 343385], the “Activity 5 uM” value is recorded as 11.2 and the “Activity 10 uM” value amounted to 8.3265. The like results for `CC(=Nc1ccc(F)cc1)C1C(=O)c2ccccc2C1=O` [Compound 343386] were, in that order, 4.235 and 5.4775. On to `COc1cccc(N=C(C)C2C(=O)c3ccccc3C2=O)c1` [Compound 343387], for which the “Activity 2.5 uM” value came out at 2.32 and the “Activity 10 uM” value was determined as 3.33. `O=C(NCC(=O)N1CCCC1)N/N=C/c1ccccc1O` [Compound 343979]: the “Activity 5 uM” value was 2.571 and the “Activity 10 uM” value is on record as 3.1255.

`CC(C)[N+](=C1O[B-](c2ccccc2)(c2ccccc2)O[B-]1(c1ccccc1)[C+]1CCCCC1)C(C)C` (stereo not drawn) [Compound 344506]: the “Activity 2.5 uM” value came out at 0.69 and the “Activity 10 uM” value was found to be 5.08.

With `Cc1nc2cc3c(cc2n2cccc12)oc1ccccc13` [Compound 346212], the “Activity 5 uM” value is given as 5.376 and the “Activity 10 uM” value is listed as 5.7595.

For `Nc1cc2c(cc1-n1cccc1)oc1ccccc12` [Compound 347204], the “Activity 5 uM” value came out at 4.246 and the “Activity 10 uM” value worked out at 6.6455.

Take `Clc1nc2cc3c(cc2n2cccc12)oc1ccccc13` [Compound 347816]: the “Activity 5 uM” value is 3.143 and the “Activity 10 uM” value came to 3.5245. Take `Br.CN1CCC2(C)CC(Br)(Cc3ccccc32)C1Cl` (stereo not drawn) [Compound 349125]: the “Activity 2.5 uM” value was 0.47 and the “Activity 10 uM” value came out at 13.75. Consider `[Cl][Hg][Cl]` [Compound 353255], for which the “Activity 2.5 uM” value was determined as 3.3. In the case of `C/C(=N\NC(=S)Nc1nccs1)c1ccccn1` [Compound 354087], the “Activity 2.5 uM” value stood at 2.65 and the “Activity 10 uM” value is 10.14.

In the case of `O=C(Nc1nc2ccsc2s1)c1ccccc1` [Compound 354215], the “Activity 2.5 uM” value was determined as 3.08 and the “Activity 10 uM” value turned out to be 4.14. On to `c1ccc(-c2cnn3c(-c4ccccc4)cnnc23)cc1` [Compound 355167], for which the “Activity 2.5 uM” value is 3.09 and the “Activity 10 uM” value is reported as 4.17.

For the compound `[Cl][Sn]([CH2][Sn]([Cl])([c]1ccccc1)[c]1ccccc1)([c]1ccccc1)[c]1ccccc1` [Compound 356110], the “Activity 5 uM” value is listed as 2.4 and the “Activity 10 uM” value came out at 3.9.

For the compound `[Br][Sn]([Br])([CH2][Sn]([Br])([c]1ccccc1)[c]1ccccc1)[c]1ccccc1` [Compound 356111], the “Activity 5 uM” value amounted to 4.4 and the “Activity 10 uM” value is 3.2. Regarding `COc1ccc2nc3cc(Cl)ccc3c(NCCC3CCCN4CCCCC34)c2c1` (stereo not drawn) [Compound 359827], the “Activity 2.5 uM” value came out at 0.61 and the “Activity 10 uM” value came to 6.27. The like results for `CSc1ncnc2c(C3OC(COC(C)=O)C(OC(C)=O)C3OC(C)=O)[nH]nc12` (stereo not drawn) [Compound 360648] were, in that order, 1.88 and 3.85. The like results for `CC(C)(C)c1cc(C(O)(C(F)(F)F)C(F)(F)F)c(Cl)c(C(O)(C(F)(F)F)C(F)(F)F)c1` [Compound 361407] were, in that order, 0.62 and 3.7. As to `c1cc[c]([Ge]([O][Ge]([c]2ccccc2)[c]2ccccc2)[c]2ccccc2)cc1.c1cc[c]([Ge]([O][Ge]([c]2ccccc2)[c]2ccccc2)[c]2ccccc2)cc1` [Compound 361597], the “Activity 2.5 uM” value stood at 0.32 and the “Activity 10 uM” value came to 17.56. Turning to `O=C1c2c(-c3ccccc3)ccc(-c3ccccc3)c2C2(O)OC1(O)c1c(-c3ccccc3)ccc(-c3ccccc3)c1C2=O` [Compound 361889], the “Activity 2.5 uM” value amounted to 0.88 and the “Activity 10 uM” value is 12.01.

With `COc1ccc(N=c2nc3n4c(c(Br)cc(Br)c4n2)NC(C(Br)(Br)Br)=N3)cc1` [Compound 366233], the “Activity 2.5 uM” value was 17.26 and the “Activity 10 uM” value is listed as 30.55. In the case of `CC(/C=C/c1cccc(C)c1)=N\NC(N)=O` [Compound 366583], the “Activity 5 uM” value came to 2.409 and the “Activity 10 uM” value came to 3.134. `COc1ccc2c(n1)Sc1nc3ccccc3nc1N2` [Compound 367416]: the “Activity 5 uM” value is 6.047 and the “Activity 10 uM” value was determined as 7.3545. Consider `Br.C/C(=C\c1ccccc1)C(=O)C(CN(C)C)CN(C)C` [Compound 367620], for which the “Activity 2.5 uM” value is given as 0.49 and the “Activity 10 uM” value is given as 16.04. For `Cc1ccc2nc(-c3ccccc3)c(N=O)n2c1` [Compound 369061], the “Activity 5 uM” value turned out to be 5.137 and the “Activity 10 uM” value stood at 6.3.

Take `O=C(Nc1nc2ccc(Cl)cc2[nH]1)c1ccccc1O` [Compound 369110]: the “Activity 2.5 uM” value is listed as 1.84 and the “Activity 10 uM” value came to 6.46. Regarding `CC(=Nc1ccc(Cl)cc1N)c1c(O)cc(C)oc1=O` [Compound 369331], the “Activity 5 uM” value was determined as 2.533 and the “Activity 10 uM” value is on record as 2.7605. For `CN(C(=[Se])[Se]C(=[Se])N(C)C1CCCCC1)C1CCCCC1` [Compound 369741], the “Activity 2.5 uM” value was determined as 0.96 and the “Activity 10 uM” value was found to be 6.34.

`c1csc(-c2[nH]nc3c2CCc2ccccc2-3)c1` [Compound 370463]: the “Activity 2.5 uM” value was 4.76 and the “Activity 10 uM” value is 5.98. The like results for `Cn1c2ccccc2c2nnc(N/N=C/c3ccccn3)nc21` [Compound 370589] were, in that order, 11.87 and 39.54. The like results for `Cc1ccc2c(O)c3c(cc2c1O)C(=O)c1ccccc1C3=O` [Compound 374924] were, in that order, 2.1 and 6.35. Take `C/C(=N\NC(=S)N1CCN(C2CCCCCC2)CC1)c1ccccn1` [Compound 376265]: the “Activity 2.5 uM” value stood at 2.72 and the “Activity 10 uM” value turned out to be 7.26.

On to `O=C(O)Cc1ccc(O)c(O)c1.[Pt].c1ccc([PH+](c2ccccc2)c2ccccc2)cc1.c1ccc([PH+](c2ccccc2)c2ccccc2)cc1` [Compound 377376], for which the “Activity 2.5 uM” value worked out at 0.96 and the “Activity 10 uM” value is 5.14.

For `CNCC(O)c1ccc(O)c(O)c1.[Pt].c1ccc([PH+](c2ccccc2)c2ccccc2)cc1.c1ccc([PH+](c2ccccc2)c2ccccc2)cc1` [Compound 377377], the “Activity 2.5 uM” value is given as 0.77 and the “Activity 10 uM” value was 34.93. With `CC(C)NCC(O)c1ccc(O)c(O)c1.[Pt].c1ccc([PH+](c2ccccc2)c2ccccc2)cc1.c1ccc([PH+](c2ccccc2)c2ccccc2)cc1` [Compound 377378], the “Activity 2.5 uM” value amounted to 0.87 and the “Activity 10 uM” value is on record as 21.49. As to `Nc1ccccc1-c1nnc(-c2ccccc2)o1` [Compound 377831], the “Activity 2.5 uM” value turned out to be 2.19 and the “Activity 10 uM” value came out at 3.79. On to `COc1cc2c(cc1C[N+](C)(C)CSc1ccccc1)-c1ccccc1CC2.[Br-]` [Compound 378135], for which the “Activity 2.5 uM” value came to 1.75 and the “Activity 10 uM” value is reported as 3.15. The like results for `Nc1ccccc1Nc1c([N+](=O)[O-])cc(C(F)(F)F)cc1[N+](=O)[O-]` [Compound 379578] were, in that order, 0.61 and 27.15. In the case of `CC1(C)CN=C(NN=C(C=Cc2ccc(C(F)(F)F)cc2)C=Cc2ccc(C(F)(F)F)cc2)NC1` [Compound 379665], the “Activity 2.5 uM” value was determined as 1.08 and the “Activity 10 uM” value is on record as 35.03.

On to `COC(=O)C1=C(C(=O)OC)C2(C)OC1c1ccccc12` (stereo not drawn) [Compound 380207], for which the “Activity 2.5 uM” value was 0.47 and 0.3615.

For the compound `c1ccc(-c2noc(-c3ccccc3)n2)cc1` [Compound 400077], the “Activity 2.5 uM” value is recorded as 2.04 and the “Activity 10 uM” value was found to be 3.14.

For the compound `CN(C)c1ccc(N=C2C=CC(=O)C=C2)cc1` [Compound 400538], the “Activity 2.5 uM” value was found to be 0.57 and the “Activity 10 uM” value came out at 6.8. The like results for `Cc1cc(N=Nc2ccccc2C)c(N)cc1N` [Compound 400939] were, in that order, 2.36 and 3.56. Take `CC1=CC(=Nc2ccc(N(C)C)cc2)C=CC1=O` [Compound 401162]: the “Activity 2.5 uM” value is 0.3784 and the “Activity 10 uM” value turned out to be 7.084. Turning to `c1ccc2c(O[Si](Oc3cccc4ccccc34)(Oc3cccc4ccccc34)Oc3cccc4ccccc34)cccc2c1` [Compound 401234], the “Activity 2.5 uM” value worked out at 1 and the “Activity 10 uM” value is recorded as 24.65. Regarding `CCCCCCNc1nc(N2CCOCC2)c2[nH]c(NCCCCCC)nc2n1` [Compound 401304], the “Activity 2.5 uM” value was determined as 1.04 and the “Activity 10 uM” value was found to be 43.11.

For the compound `Oc1c(Cl)cc(Cl)cc1Cc1cc(Cl)cc(Cl)c1O` [Compound 402193], the “Activity 2.5 uM” value stood at 0.56 and the “Activity 10 uM” value was 3.19. The like results for `Br.CCCCCCCCCCCCNCCCc1ccccc1` [Compound 402291] were, in that order, 0.73 and 4.43. Consider `Oc1ccc(N=Nc2ccc(Cl)cc2)cc1` [Compound 402592], for which the “Activity 2.5 uM” value came out at 2.25 and the “Activity 10 uM” value is listed as 3.48.

Regarding `O=C(Nc1ccccc1)c1cc(Cl)ccc1O` [Compound 402600], the “Activity 2.5 uM” value came to 1.14 and the “Activity 10 uM” value is on record as 4.82. Consider `O=C1C(=O)c2ccccc2-c2ccccc21.O=C1C(=O)c2ccccc2-c2ccccc21.[Hg]` [Compound 402785], for which the “Activity 2.5 uM” value came out at 50.88.
